Test results taken from ChEMBL document CHEMBL1201862, “PubChem BioAssay data set” (2004).
Calls of active or inactive are those of the source.

Key:
[1] = optical artefact potency, substrate without enzyme – biochemical, fluorescence intensity, triplicate, artefact control for kallikrein-7 zymogen activator project, dose response (AID 720493)
Kallikrein-7 = Kallikrein-7 (Homo sapiens, UniProt P49862); assay: Fluorescence Intensity-based biochemical primary high throughput dose response assay to identify activators of kallikrein-7 (K7) zymogen.
[2] = HepG2 cell cytotoxicity, dose response, cytotoxicity control for non-replicating M. tuberculosis project (AID 489018); format: functional; settings: Mycobacterium tuberculosis
[3] = viability loss in HepG2 liver cells – cell-based, ATP luminescence, cherry-pick, set 6, cytotoxicity control, dose response (AID 1053125); format: functional
cells [4] = format: functional
cells [5] = settings: A549
[6] = HGIII-sPLA2 enzyme inhibition potency – biochemical, QFRET, IC50, dose response (AID 743457);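 further: green fluorescence rise as the enzyme cleaves BODIPY PC-A2 in liposomes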
[7] = molecular target: T1, Short transient receptor potential channel 4 (Mus musculus, UniProt Q9QUQ5); assay: calcium entry via TRPC4 opening agents – cell-based, HEK293 TRPC4/mu-opioid, Fluo-4 calcium, dose response (AID 434937); format: functional
T1 sequence (Q9QUQ5 whole entry): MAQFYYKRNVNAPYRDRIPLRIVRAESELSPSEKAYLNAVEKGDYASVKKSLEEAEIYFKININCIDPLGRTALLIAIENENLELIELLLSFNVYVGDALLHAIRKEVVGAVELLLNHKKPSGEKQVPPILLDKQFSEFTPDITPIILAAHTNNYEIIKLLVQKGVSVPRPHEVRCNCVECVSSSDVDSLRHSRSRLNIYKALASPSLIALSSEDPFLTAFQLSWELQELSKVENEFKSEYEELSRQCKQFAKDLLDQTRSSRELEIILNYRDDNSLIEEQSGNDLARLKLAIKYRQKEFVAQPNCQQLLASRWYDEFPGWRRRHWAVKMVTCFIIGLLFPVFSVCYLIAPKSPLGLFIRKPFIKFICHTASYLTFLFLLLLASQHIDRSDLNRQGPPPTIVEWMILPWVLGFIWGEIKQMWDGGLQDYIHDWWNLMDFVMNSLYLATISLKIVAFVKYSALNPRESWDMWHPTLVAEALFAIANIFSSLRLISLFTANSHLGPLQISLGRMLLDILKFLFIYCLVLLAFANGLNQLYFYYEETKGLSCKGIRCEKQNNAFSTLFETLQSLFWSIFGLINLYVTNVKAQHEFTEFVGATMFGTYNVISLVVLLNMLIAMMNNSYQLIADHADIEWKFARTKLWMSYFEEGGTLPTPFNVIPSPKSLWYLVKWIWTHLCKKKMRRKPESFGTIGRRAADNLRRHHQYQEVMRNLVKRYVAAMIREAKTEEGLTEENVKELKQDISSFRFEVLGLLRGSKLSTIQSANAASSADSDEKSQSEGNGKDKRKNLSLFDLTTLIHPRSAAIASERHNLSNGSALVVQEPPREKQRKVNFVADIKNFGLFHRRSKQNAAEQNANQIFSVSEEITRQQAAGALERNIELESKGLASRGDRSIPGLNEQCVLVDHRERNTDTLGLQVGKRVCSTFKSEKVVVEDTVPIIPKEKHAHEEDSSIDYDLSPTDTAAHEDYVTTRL

[8] = Vero E6 cell cytotoxicity, dose response, cytotoxicity control for non-replicating M. tuberculosis project, secondary assay (AID 492998); format: functional, VeroE6; settings: Vero C1008
Vero [9] = assay: cells; format: functional; settings: Chlorocebus sabaeus
Vero [10] = assay: cells; format: functional, cell-based; settings: Chlorocebus sabaeus
cells [11] = settings: HEK293
[12] = THP-1 cell cytotoxicity, dose response, cytotoxicity control for non-replicating M. tuberculosis project (AID 489025); format: functional
[13] = molecular target: DNA (cytosine-5)-methyltransferase 1 (Homo sapiens, UniProt P26358); assay: inhibition of DNA methylation by DNMT1 – biochemical, fluorescent molecular beacon, confirmation (AID 602386); format: functional
[14] = molecular target: NAD-dependent protein deacylase sirtuin-5, mitochondrial (Homo sapiens, UniProt Q9NXA8); assay: sirtuin-5 deacylation blockers, concentration series – biochemical, fluorescence imaging, cherry-pick, set 5, dose response (AID 720591);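 further: desuccinylation of succinyl peptide AMC substrate read as fluorescence after trypsin release; potency of inhibitors that lower fluorescence and may act on trypsin instead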
[15] = Luminescence Cell-Based Dose Response HTS to Identify Inhibitors of 5'UTR Stem-Loop Driven Prion Protein mRNA Translation in H4 Neuroglioblastoma Cells. [Related pubchem assays: 1827 (Project Summary), 1813 (Primary HTS)]; format: functional
BJ [16] = assay: cells; format: functional, cell-based; settings: Homo sapiens
BJ [17] = assay: growth inhibition of engineered Ras-driven BJ cells – cell-based, alamar blue fluorescence, cherrypicked samples, dose response (AID 2631); format: functional; settings: Homo sapiens;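 further: confirmatory dose-response assay in RAS-dependent BJ fibroblasts engineered with TERT, LT and ST, with cytotoxicity read by fluorescence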
BJ [18] = assay: BJ-TERT-LT-ST fibroblast viability loss – cell-based, RAS-independent, luminescence, dose response (AID 1935); format: functional; settings: Homo sapiens;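 further: BJ fibroblasts immortalized with TERT plus LT and ST oncogenes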
[19] = HEK-293T viability loss after treatment – luminescence, T-cell screen hits, cytotoxicity control for TCR NF-kB inhibitor project, dose response (AID 489026); format: functional, cell-based;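 further: cells exposed to compound about 14 hours before the viability readout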
[20] = alpha-synuclein stem-loop luciferase translation blockers – H4 neuroglioma cells, luminescence, confirmation (AID 1988); format: functional, cell-based
[21] = DRD fibroblast viability loss – cell-based, non-viral oncogenic, luminescence, dose response (AID 1934); format: functional; settings: Homo sapiens
[22] = toxicity toward HepG2 hepatoma cells – cell-based, dry powder samples, cytotoxicity control, dose response (AID 720568); format: functional
[23] = luciferase reporter signal suppression in cells – H4 neuroglioma cells, luminescence, dose response (AID 1990); format: functional, cell-based
[24] = toxicity toward HEK293 cells – cell-based, dry powder samples, cytotoxicity control, dose response (AID 720567); format: functional
BJ [25] = assay: BJ-TERT fibroblast viability loss – cell-based, RAS-independent, luminescence, dose response (AID 1933); format: functional; settings: Homo sapiens
[26] = reduced cellular PGC1a acetyl-lysine signal – cell-based, cherry-picked samples, dose response (AID 720514); format: functional;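 further: potency may reflect raised or lowered acetylation signal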
[27] = P. falciparum Dd2 growth inhibitors, dose response, SYBR Green, cherry-picked samples (AID 1159567); format: functional, cell-based
[28] = general mammalian cell viability loss – activator set, cherry-pick, cytotoxicity control for miR-122 modulator project, dose response (AID 720690); format: functional, cell-based;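 further: HEK293T human cells scored for general mammalian cytotoxicity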
[29] = activation of miR-122 Renilla sensor silencing – cell-based, Huh7 psiCHECK-miR122, Renilla luciferase, cherry-picked, dose response (AID 651956); format: functional;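 further: huh7 hepatoma cells stably carrying a psiCHECK-2 miR-122 sensor plasmid; renilla luciferase signal reporting endogenous miR-122 activity after 48 h compound exposure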
[30] = toxicity to human hepatoma HepG2 cells – cell-based, cherry-picked samples, cytotoxicity control, dose response (AID 1159577); format: functional
[31] = blockers of HIV-1 envelope-mediated cell-cell fusion – cherry-pick, dose response (AID 652057); format: functional, cell-based
[32] = T. cruzi growth inhibition in host cells, dose response, cell-based, plate reader, dry powder, set 2 (AID 652275); format: functional
[33] = Trypanosoma cruzi replication inhibitors in host cells – cell-based, plate reader, dry powder samples, dose response (AID 651845); format: functional
[34] = anti-trypanosomal activity in BESM host cells – imaging, CA-I/72 strain, bovine embryo skeletal muscle, dry powder, dose response (AID 651885); format: functional, cell-based
[35] = HIV-1 AD8 envelope cell-cell fusion blockers – cherry-pick, dose response (AID 652062); format: functional, cell-based;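 further: luciferase signal from cell-cell fusion driven by HIV-1 clade B AD8 Env; potency is for inhibitors of fusion seen as a drop in luminescence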
[36] = inhibitors of non-replicating M. tuberculosis, dose response, luciferase, dry powder (AID 651620); format: functional; settings: Mycobacterium tuberculosis
[37] = inhibitors of non-replicating M. tuberculosis, dose response, luciferase, dry powder (AID 651619); format: functional; settings: Mycobacterium tuberculosis
[38] = growth inhibition of replicating M. tuberculosis, dose response, counter-screen, dry powder, IC90 (AID 651617); format: functional; settings: Mycobacterium tuberculosis
[39] = HepG2 hepatoma cell viability loss – plate reader, dry powder, cytotoxicity control, dose response (AID 651947); format: functional, cell-based
[40] = YAP1 overexpression rescue of CTGF inhibition – DLD1 cells, RT-qPCR, cherry-pick, mechanism study for YAP1 pathway inhibitor project, dose response (AID 1053127); format: functional, cell-based; settings: DLD-1
[41] = CTGF mRNA reduction in DLD1 cells – cell-based, DLD1 colon cancer, RT-qPCR, cherry-pick, dose response (AID 1053122); format: functional; settings: Cancer cell lines
[42] = viability loss in A549 lung cells – cell-based, 24 h, CellTiter-Glo luminescence, cherry-picks, cytotoxicity control, dose response (AID 1053115); format: functional; settings: A549, 24 h

Chain of NAD-dependent protein deacylase sirtuin-5, mitochondrial (Q9NXA8 whole entry): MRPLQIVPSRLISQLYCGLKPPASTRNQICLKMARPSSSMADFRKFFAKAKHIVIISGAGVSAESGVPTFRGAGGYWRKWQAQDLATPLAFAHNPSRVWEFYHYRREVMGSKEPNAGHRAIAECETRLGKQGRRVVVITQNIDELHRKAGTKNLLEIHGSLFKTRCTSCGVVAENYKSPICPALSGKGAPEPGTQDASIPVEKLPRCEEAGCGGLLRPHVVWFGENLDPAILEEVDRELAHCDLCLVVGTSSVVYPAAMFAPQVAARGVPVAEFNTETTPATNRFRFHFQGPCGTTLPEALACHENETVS
Chain of DNA (cytosine-5)-methyltransferase 1 (P26358 whole entry): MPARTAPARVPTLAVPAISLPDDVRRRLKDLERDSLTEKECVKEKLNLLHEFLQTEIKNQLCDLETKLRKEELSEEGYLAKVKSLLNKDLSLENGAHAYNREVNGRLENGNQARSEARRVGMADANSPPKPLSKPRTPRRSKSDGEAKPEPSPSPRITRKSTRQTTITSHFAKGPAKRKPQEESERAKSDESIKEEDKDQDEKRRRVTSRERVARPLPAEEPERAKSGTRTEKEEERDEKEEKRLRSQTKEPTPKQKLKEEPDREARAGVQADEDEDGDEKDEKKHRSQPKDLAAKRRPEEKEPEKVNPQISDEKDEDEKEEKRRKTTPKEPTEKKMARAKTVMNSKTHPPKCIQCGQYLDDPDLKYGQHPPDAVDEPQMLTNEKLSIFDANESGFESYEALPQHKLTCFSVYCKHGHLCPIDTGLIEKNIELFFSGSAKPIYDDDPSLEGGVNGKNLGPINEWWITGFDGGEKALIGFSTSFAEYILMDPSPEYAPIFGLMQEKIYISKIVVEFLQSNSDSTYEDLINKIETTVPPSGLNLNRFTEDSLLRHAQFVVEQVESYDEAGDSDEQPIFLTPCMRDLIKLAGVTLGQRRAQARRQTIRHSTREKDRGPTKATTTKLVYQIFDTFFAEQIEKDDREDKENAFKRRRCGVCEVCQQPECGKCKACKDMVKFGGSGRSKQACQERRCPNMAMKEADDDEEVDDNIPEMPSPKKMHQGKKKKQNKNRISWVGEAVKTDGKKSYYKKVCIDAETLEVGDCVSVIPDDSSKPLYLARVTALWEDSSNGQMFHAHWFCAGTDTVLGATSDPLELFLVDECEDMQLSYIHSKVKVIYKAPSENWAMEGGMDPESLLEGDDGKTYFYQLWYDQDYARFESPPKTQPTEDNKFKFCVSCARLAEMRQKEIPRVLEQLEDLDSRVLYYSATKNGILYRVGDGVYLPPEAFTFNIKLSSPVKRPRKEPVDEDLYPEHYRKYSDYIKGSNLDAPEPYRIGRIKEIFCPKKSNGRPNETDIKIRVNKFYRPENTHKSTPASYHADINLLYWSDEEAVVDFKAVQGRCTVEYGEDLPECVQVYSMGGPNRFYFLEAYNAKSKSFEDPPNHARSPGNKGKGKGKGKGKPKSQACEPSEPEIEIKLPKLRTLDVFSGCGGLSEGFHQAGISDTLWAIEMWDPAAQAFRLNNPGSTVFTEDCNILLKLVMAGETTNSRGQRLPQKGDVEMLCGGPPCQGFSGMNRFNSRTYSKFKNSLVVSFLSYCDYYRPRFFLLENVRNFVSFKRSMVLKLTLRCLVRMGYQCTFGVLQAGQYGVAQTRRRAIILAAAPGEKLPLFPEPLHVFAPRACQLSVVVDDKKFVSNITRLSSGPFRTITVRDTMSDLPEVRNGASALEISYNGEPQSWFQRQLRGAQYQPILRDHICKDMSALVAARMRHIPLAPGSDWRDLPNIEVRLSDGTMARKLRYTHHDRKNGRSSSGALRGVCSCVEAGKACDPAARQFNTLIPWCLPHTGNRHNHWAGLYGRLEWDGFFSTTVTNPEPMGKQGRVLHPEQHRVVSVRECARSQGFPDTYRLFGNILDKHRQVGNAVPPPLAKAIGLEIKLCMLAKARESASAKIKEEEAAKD
Chain of Kallikrein-7 (P49862 whole entry): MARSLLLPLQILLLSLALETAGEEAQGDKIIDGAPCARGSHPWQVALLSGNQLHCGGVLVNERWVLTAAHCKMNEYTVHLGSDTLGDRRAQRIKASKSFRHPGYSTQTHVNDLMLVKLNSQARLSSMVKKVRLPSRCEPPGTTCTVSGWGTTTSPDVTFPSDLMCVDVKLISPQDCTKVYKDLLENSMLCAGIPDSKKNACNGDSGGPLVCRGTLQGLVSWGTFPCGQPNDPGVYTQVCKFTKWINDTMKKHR

O=C1c2ccccc2NC(c2cccnc2)N1c1ccccc1F (stereo not drawn)
active: EC50 [1] > 7.72 µM
inactive: EC50 (Kallikrein-7) > 69.5 µM

CCCOc1ccc(C(=O)NNC(=S)NC(=O)c2ccco2)cc1
inactive: AC50 [3] > 52 µM | IC50 [6] 44 µM
active: CC50 [2] 17.4 µM | IC50 (cells [4]) 2.55 µM | AC50 (cells [5]) 36.8 µM | EC50 [7] 5.96 µM | CC50 [8] 8.73 µM | CC50 (Vero [9]) 20.7 µM | IC50 (Vero [10]) > 25 µM | AC50 (cells [11]) 42.2 µM | CC50 [12] 7.6 µM

Cc1ccc(S(=O)(=O)N2[C@@H](c3ccc(C(C)(C)C)cc3)C(C(=O)O)=CC[C@H]2c2ccc(C(C)C)cc2)cc1
active: IC50 [13] 5.04 µM | AC50 [14] 17.5 µM

CC(=O)c1ccc(Oc2cc(C)nc(-n3nc(C)cc3C)n2)cc1
inconclusive: EC50 (BJ [16]) 63.8 µM
inactive: IC50 [19] > 80 µM | AC50 [22] > 30 µM
active: EC50 [15] 0.339 µM | EC50 (BJ [17]) 0.264 µM | EC50 (BJ [18]) 1.45 µM | EC50 [20] 0.44 µM | EC50 [21] 0.917 µM | EC50 [23] 4.5 µM | AC50 [24] 15.8 µM | EC50 (BJ [25]) 1.95 µM

O=C(Nc1ccccc1F)N1CCCCN2[C@@H](CO)[C@@H](c3ccc(C#Cc4ccccc4)cc3)[C@@H]2C1
active: AC50 [26] 15.9 µM | AC50 [27] 2.13 µM | AC50 [28] 7.45 µM | AC50 [29] 8.65 µM | AC50 [30] 9.78 µM

C[C@@H]1CN([C@H](C)CO)C(=O)c2cccc(NC(=O)c3ccncc3)c2O[C@H]1CN(C)CC1CCCCC1
active: AC50 [31] 0.884 µM | AC50 [32] 0.303 µM | AC50 [33] 0.391 µM | IC50 [34] 0.961 µM | AC50 [35] 4.84 µM

c1ccc(Cn2cc(CSc3nnc(C4CCC4)o3)nn2)cc1
active: IC90 [36] 4 µM | IC90 [37] 4 µM | IC90 [38] 250 µM

c1ccc(CSc2nnc(-c3cscn3)o2)cc1
active: AC50 [39] 34.4 µM

C[C@@H]1C/C=C/C[C@H](c2ccc(F)cc2)NC(=O)[C@@H](Cc2ccccc2)N(C)C(=O)c2ccccc2O1.C[C@@H]1C/C=C\C[C@H](c2ccc(F)cc2)NC(=O)[C@@H](Cc2ccccc2)N(C)C(=O)c2ccccc2O1
active: AC50 [40] 20.9 µM | AC50 [41] 4.01 µM

CN1c2ccc(-c3ccc(C#N)cc3)cc2[C@H]2[C@H](CCN2C(=O)C2CCCCC2)[C@@H]1CO
active: AC50 [42] 36.2 µM
